In paper PMC11915801, “Evolutionary trajectory of bacterial resistance to antibiotics and antimicrobial peptides in Escherichia coli” (mSystems, 2025):
Converted amounts (≈) assume the structure as drawn. Read-outs that look alike come from different tables or passages of the source. Where a SMILES comes first, the peptide text is derived from it.

Key:
[1] = system: chloramphenicol-resistant strains (CHL80); assay: Disk diffusion experiment, chloramphenicol-resistant strains; format: cell-based, Escherichia coli; details: drug 2,048 µg/mL, LB agar, 37°C 24 h
Procedure: (§1) Fifty microliters of bacterial cultures was spread evenly onto LB agar. A prepared circular sterile filter paper was pasted on the center of the petri dish, and the corresponding drugs with a concentration of 2,048 µg/mL were dropped on the center of the circular filter paper. The petri dishes were placed at 37°C for 24 h, and the diameters of the sterile growth circles were measured.

[2] = system: G. mellonella larvae infected with chloramphenicol-resistant strains; assay: G. mellonella infection protection model, chloramphenicol-resistant strain; format: in vivo, Galleria mellonella; details: monotreatment 30 mg/kg at 1 h post-infection, 5 days, n = 8 per group
Procedure: (§2) The bacterial culture was uniformly diluted with saline to an OD600 of 0.35. G. mellonella larvae (n = 8 per group) were randomly divided, and sterile saline was used as the blank control. In the virulence assessment, 10 µL of bacterial solution was inoculated into each larva using a Hamilton syringe. The survival of larvae was observed and recorded daily for 7 days.
(§3) For the larval infection protection model, larvae were infected with wild-type and antibiotic-resistant strains and treated with a dose of 30 mg/kg of drugs at the left foot of the last gastropod at 1 h post-infection, and the survival was monitored for 5 days.

[3] = system: G. mellonella larvae infected by the original MG1655; assay: G. mellonella infection protection model, original MG1655; format: in vivo, Galleria mellonella; details: monotreatment 30 mg/kg at 1 h post-infection, 5 days, n = 8 per group
Procedure: as §2, §3

E. coli K-12 MG1655 = assay: microbe, parasite or virus in culture; format: cell-based, Escherichia coli; details: Escherichia coli
Procedure, shortened: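 Broth microdilution MIC per CLSI, taken as lowest concentration without visible growth. Resistance evolution over 120 passages in MH broth at sub-inhibitory drug concentration, 12 h at 37℃, 200 rpm per passage. MIC redetermined during passaging and drug concentration adjusted to MIC changes.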

AMP120 (evolved MG1655) = assay: microbe, parasite or virus in culture; format: cell-based, Escherichia coli; details: Escherichia coli, MG1655; broth microdilution; ampicillin-evolved strain
Procedure, shortened: (§4)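 MICs determined by broth microdilution following CLSI guidelines against E. coli MG1655 strains evolved under the named antibiotic, three randomly picked clones per lineage. MIC is the lowest drug concentration with no visible growth.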

AZI120 (evolved MG1655) = assay: microbe, parasite or virus in culture; format: cell-based, Escherichia coli; details: Escherichia coli, MG1655; broth microdilution; azithromycin-evolved strain
Procedure, shortened: as §4

CHL80 (evolved MG1655) = assay: microbe, parasite or virus in culture; format: cell-based, Escherichia coli; details: Escherichia coli, MG1655; broth microdilution; chloramphenicol-evolved strain
Procedure, shortened: as §4

CIP120 (evolved MG1655) = assay: microbe, parasite or virus in culture; format: cell-based, Escherichia coli; details: Escherichia coli; broth microdilution; ciprofloxacin-evolved strain
Procedure, shortened: as §4

COL120 (evolved MG1655) = assay: microbe, parasite or virus in culture; format: cell-based, Escherichia coli; details: Escherichia coli, MG1655; broth microdilution; colistin-evolved strain
Procedure, shortened: as §4

DOX120 (evolved MG1655) = assay: microbe, parasite or virus in culture; format: cell-based, Escherichia coli; details: Escherichia coli, MG1655; broth microdilution; doxycycline-evolved strain
Procedure, shortened: as §4

KAN80 (evolved MG1655) = assay: microbe, parasite or virus in culture; format: cell-based, Escherichia coli; details: Escherichia coli, MG1655; broth microdilution; kanamycin-evolved strain
Procedure, shortened: as §4

NIT70 (evolved MG1655) = assay: microbe, parasite or virus in culture; format: cell-based, Escherichia coli; details: Escherichia coli, MG1655; broth microdilution; nitrofurantoin-evolved strain
Procedure, shortened: as §4

TMP30 (evolved MG1655) = assay: microbe, parasite or virus in culture; format: cell-based, Escherichia coli; details: for MIC: Escherichia coli, MG1655, broth microdilution, trimethoprim-evolved strain
Procedure, shortened: as §4

MG1655 WT = assay: microbe, parasite or virus in culture; format: cell-based; details: Escherichia coli, MG1655, read-out: MIC values of MG1655 with gene silencing, WT
Source text: (§5) The broth microdilution method was used to measure the MIC values of antibiotics and peptides according to the Clinical and Laboratory Standards Institute guidelines. The MIC value is defined as the lowest drug concentration without visible bacteria.
(§6) The engineered CRISPR/CRISPR-associated protein 9 (Cas9) system was used to repress the dnaA, deoB, icd, and thyA genes. Briefly, spacer 1 (5-[…]-3), spacer 2 (5-[…]-3), spacer 3 (5-[…]-3), and spacer 4 (5-[…]-3) were synthesized, and then, the construction of the targeting plasmid psgRNA was performed in a total volume of 25 µL. Subsequently, 1.5 µL of each newly constructed psgRNA and dCas9 was simultaneously electroporated into the competent cells of MG1655. MG1655 containing unmodified psgRNA and dCas9 was used as a control. Anhydrotetracycline at a final concentration of 0.5 µg/mL was used to induce gene repression. RT-qPCR was used to verify the expression of the genes.

MG1655 dnaA-i = assay: MIC, CRISPRi dnaA-repressed MG1655; format: cell-based; details: Escherichia coli, broth microdilution, CRISPRi repression of dnaA, anhydrotetracycline 0.5 µg/mL, read-out: MIC values of MG1655 with gene silencing, dnaA-i
Source text: as §5, §6

MG1655 deoB-i = assay: MIC, CRISPRi deoB-repressed MG1655; format: cell-based; details: Escherichia coli, broth microdilution, CRISPRi repression of deoB, read-out: MIC values of MG1655 with gene silencing, deoB-i
Source text: as §5, §6

MG1655 icd-i = assay: MIC, CRISPRi icd-repressed MG1655; format: cell-based; details: Escherichia coli, broth microdilution, CRISPRi repression of icd, read-out: MIC values of MG1655 with gene silencing, icd-i
Source text: as §5, §6

MG1655 thyA-i = assay: MIC, CRISPRi thyA-repressed MG1655; format: cell-based, Escherichia coli; details: for MIC: Escherichia coli, MG1655, broth microdilution, CRISPRi repression of thyA, read-out: MIC values of MG1655 with gene silencing, thyA-i
Source text: as §5, §6

[4] = system: chloramphenicol-resistant bacteria (CHL80); details: 15-min exposure, tenfold the MIC of MG1655, 1 × 10^6 CFU log-phase, CFU counting
Procedure: (§7) Bacteria were cultured at 37°C and 200 rpm to the logarithmic phase (1 × 10^6 CFU). The corresponding drugs, with a final concentration of tenfold the MIC of MG1655, were added. At 15, 30, 60, 90, and 120 min, 50 µL of the mixture was serially diluted 10-fold and dropped on an LB agar plate for CFU counting.

original MG1655 = details: tenfold the MIC of MG1655, 15-120 min, CFU counting
Procedure: as §7

[5] = system: trimethoprim-resistant strains (TMP30); assay: Disk diffusion experiment, trimethoprim-resistant strains; format: cell-based, Escherichia coli; details: drug 2,048 µg/mL, LB agar, 37°C 24 h
Procedure: as §1

[6] = system: mice infected with MG1655; details: 5.0 × 10^8 CFU i.p.; trimethoprim 60 mg/kg i.p. 1 h after infection; organs at 48 h; n = 6
Procedure: Female BALB/c mice aged 6 to 8 weeks were randomly divided into four groups with six replicates for each group. Of bacterial suspension, 5.0 × 10^8 CFU was intraperitoneally injected to mice for 1 h, followed by a second intraperitoneal injection of trimethoprim (60 mg/kg) or pexiganan (10 mg/kg) or a combination of trimethoprim and pexiganan (30 + 5 mg/kg). The PBS injection group was used as a control. After 48 h, the liver, spleen, and kidneys of the mice were aseptically removed for CFU measurement.

[7] = MG1655, 12 h, read-out: MIC of MG1655 under the pressure of the same drug, generation 10
[8] = MG1655, read-out: MIC of MG1655 under the pressure of the same drug, generation primary
[9] = MG1655, as E2, generation 20, read-out: MIC of MG1655 under the pressure of the same drug, generation 20
[10] = MG1655, as E2, generation 30, read-out: MIC of MG1655 under the pressure of the same drug, generation 30

Row | SMILES | MIC (E. coli K-12 MG1655; [7]) [µg/mL] | MIC (E. coli K-12 MG1655; [8]) [µg/mL] | MIC (E. coli K-12 MG1655; [9]) [µg/mL] | MIC (E. coli K-12 MG1655; [10]) [µg/mL] | MIC (AMP120 (evolved MG1655)) [µg/mL] | MIC (AZI120 (evolved MG1655)) [µg/mL] | MIC (CHL80 (evolved MG1655)) [µg/mL] | MIC (CIP120 (evolved MG1655)) [µg/mL] | MIC (COL120 (evolved MG1655)) [µg/mL] | MIC (DOX120 (evolved MG1655)) [µg/mL] | MIC (KAN80 (evolved MG1655)) [µg/mL] | MIC (NIT70 (evolved MG1655)) [µg/mL] | MIC (TMP30 (evolved MG1655)) [µg/mL] | MIC (MG1655 WT) [µg/mL] | MIC (MG1655 dnaA-i) [µg/mL] | MIC (MG1655 deoB-i) [µg/mL] | MIC (MG1655 icd-i) [µg/mL] | MIC (MG1655 thyA-i) [µg/mL] | further results
1 | CC[C@H](C)[C@H](NC(=O)[C@H](CCCNC(=N)N)NC(=O)[C@H](CS)NC(=O)[C@H](CC(C)C)NC(=O)[C@H](CCCCN)NC(=O)[C@H](CCCCN)NC(=O)[C@H](CC(C)C)NC(=O)[C@@H](NC(=O)[C@H](CCCNC(=N)N)NC(=O)[C@H](CS)NC(=O)[C@H](CC(C)C)NC(=O)[C@H](CCCCN)NC(=O)[C@H](CCCCN)NC(=O)[C@@H](N)CC(C)C)[C@@H](C)CC)C(=O)O [LI, LI14] (H-LKKLCRILKKLCRI-OH; N-terminus and C-terminus assumed) | – | – | – | – | – | – | – | – | – | – | – | – | – | – | – | – | – | – | inhibition halo on chloramphenicol-resistant strains (in words) [1]: noticeable inhibitory effect; survival rate of larvae infected with chloramphenicol-resistant strains [2]: 62.5%; survival of larvae infected by the original MG1655 [3]: all larvae infected by the original MG1655 died
2 | O=C1CN(/N=C/c2ccc([N+](=O)[O-])o2)C(=O)N1 [NIT, Nitrofurantoin] | 16 | 16 | 16 | 64 | 16 (≈ 67.2 µM) | 16 (≈ 67.2 µM) | 4 (≈ 16.8 µM) | 16 (≈ 67.2 µM) | 8 (≈ 33.6 µM) | 16 (≈ 67.2 µM) | 8 (≈ 33.6 µM) | 512 (≈ 2150 µM) | 4 (≈ 16.8 µM) | 16 (≈ 67.2 µM) | 16 (≈ 67.2 µM) | 16 (≈ 67.2 µM) | 16 (≈ 67.2 µM) | 8 (≈ 33.6 µM) | MIC (E. coli K-12 MG1655; MG1655, as E2, generation 40, read-out: MIC of MG1655 under the pressure of the same drug, generation 40): 64 µg/mL; MIC (E. coli K-12 MG1655; MG1655, as E2, generation 50, read-out: MIC of MG1655 under the pressure of the same drug, generation 50): 128 µg/mL; MIC (E. coli K-12 MG1655; MG1655, as E2, generation 60, read-out: MIC of MG1655 under the pressure of the same drug, generation 60): 256 µg/mL; MIC (E. coli K-12 MG1655; MG1655, as E2, generation 70, read-out: MIC of MG1655 under the pressure of the same drug, generation 70): 512 µg/mL; collateral sensitivity of TMP30 (fold change of MIC vs wild-type MG1655) (TMP30 (evolved MG1655); MIC of TMP30 compared with MG1655): exceeding fourfold; killing of chloramphenicol-resistant bacteria (CFU) [4]: completely eradicated; CFU reduction of original MG1655 (original MG1655): decreased by less than one-log; inhibition halo on trimethoprim-resistant strains (in words) [5]: significant inhibitory effect
3 | COc1cc(Cc2cnc(N)nc2N)cc(OC)c1OC [TMP, Trimethoprim] | 128 | 64 | 128 | 512 | 128 (≈ 441 µM) | 64 (≈ 220 µM) | 128 (≈ 441 µM) | 128 (≈ 441 µM) | 128 (≈ 441 µM) | 128 (≈ 441 µM) | 128 (≈ 441 µM) | 128 (≈ 441 µM) | 512 (≈ 1760 µM) | 64 (≈ 220 µM) | 64 (≈ 220 µM) | 128 (≈ 441 µM) | 128 (≈ 441 µM) | 256 (≈ 882 µM) | increase in MIC in thyA-i strains vs original MG1655 (MG1655 thyA-i; CRISPRi thyA repression): four-fold increase in MIC; bacterial loads in the liver, spleen, and kidneys of mice infected with MG1655 [6]: decreased significantly
